ChEMBL document CHEMBL1128008, “Synthesis of etoposide phosphate, BMY-40481: A water-soluble clinically active prodrug of etoposide” (Bioorg Med Chem Lett, 1994)
Active and inactive are the calls of the source. The rule behind the calls is not given here.

How the values were obtained:
Homo sapiens = experiment: Antitumor activity administered ip was determined in human model; Active; type: functional, organism-based
Mus musculus = experiment: Antitumor activity administered ip, po was determined in murine model; Active; type: functional, organism-based
[1] = Plasma half life in dog; type: ADME, organism-based, Canis lupus familiaris
[2] = Plasma half life in human; type: ADME, cell-free
[3] = Plasma half life in monkey; type: ADME; conditions: cercopithecidae
[4] = Plasma half life in mouse; type: ADME, organism-based
B16 = experiment: Inhibitory activity administered was determined against sc B16 melanoma cells; Active; type: functional, organism-based; conditions: Mus musculus
L1210 = experiment: Inhibitory activity administered was determined against ic L1210 leukemia cells; Active; type: functional; conditions: Mus musculus
P388 [5] = experiment: Inhibitory activity administered iv was determined against implanted P388 leukemia cells; Active; type: functional, organism-based; conditions: Mus musculus
P388 [6] = experiment: Inhibitory activity administered was determined against ic P388 leukemia cells; Active; type: functional; conditions: Mus musculus

For COc1cc(C2c3cc4c(cc3[C@@H](O[C@@H]3O[C@@H]5CO[C@@H](C)O[C@H]5[C@H](O)[C@H]3O)[C@H]3COC(=O)[C@H]23)OCO4)cc(OC)c1O (single isomer, unassigned), the Activity (Homo sapiens) was “Active” and the Activity (Mus musculus) was “Active”.

COc1cc([C@H]2c3cc4c(cc3[C@@H](O[C@@H]3O[C@H]5CO[C@@H](C)O[C@H]5[C@H](O)[C@@H]3O)[C@H]3COC(=O)[C@H]23)OCO4)cc(OC)c1OP(=O)([O-])[O-].[Na+].[Na+] showed a half-life [1] of 124 min, a half-life [2] of 45 min and a half-life [3] of 39 min. The half-life [4] was 39 min, the Activity (B16) was “Active” and the Activity (Homo sapiens) was “Active”. The Activity (L1210) was “Active”, the Activity (P388 [5]) was “Active” and the Activity (P388 [6]) was “Active”.
